# Experimental data published in patent publication US20030032635A1, “Heterocyclic esters and amides” (priority 1996, published 2003).
# Legend:
# [1] = system: chick dorsal root ganglia (sensory neurons); assay: Chick dorsal root ganglion cultures and neurite outgrowth; type: cell-based
# Method: Dorsal root ganglia were dissected from chick embryos of ten day gestation. Whole ganglion explants were cultured on thin layer Matrigel-coated 12 well plates with Liebovitz L15 plus high glucose media supplemented with 2 mM glutamine and 10% fetal calf serum, and also containing 10 μM cytosine β-D arabinofuranoside (Ara C) at 37° C. in an environment containing 5% CO2. Twenty four hours later, the DRGs were treated with various immunophilin ligands. Forty-eight hours after drug treatment, the ganglia were visualized under phase contrast or Hoffman Modulation contrast with a Zeiss Axiovert inverted microscope. Photomicrographs of the explants were made, and neurite outgrowth was quantitated. Neurites longer than the DRG diameter were counted as positive, with total number of neurites quanitated per each experimental condition. Three to four DRGs are cultured per well, and each treatment was performed in duplicate.
# The data for these experiments for representative compounds are presented in the “ED50” column of Table III.
# [2] = biological target: FKBP12 (FKBP) (Homo sapiens, UniProt P62942); assay: Ki test procedure: inhibition of peptidyl-prolyl isomerase (rotamase) activity, chymotrypsin-coupled assay; type: biochemical; conditions: apparent Ki, substrate N-succinyl-Ala-Ala-Pro-Phe-p-nitroanilide
# Chain of FKBP12 (FKBP) (P62942 whole entry, species assumed): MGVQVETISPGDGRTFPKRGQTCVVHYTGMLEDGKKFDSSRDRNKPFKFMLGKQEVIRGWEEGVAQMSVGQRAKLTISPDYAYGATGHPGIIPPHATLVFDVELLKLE
# Excerpt: As discussed above, the compounds of the present invention have an affinity, for the FK506 binding protein, particularly FKBP12. The inhibition of the prolyl peptidyl cis-trans isomerase activity of FKBP may be measured as an indicator of this affinity.
# Inhibition of the peptidyl-prolyl isomerase (rotamase) activity of the inventive compounds can be evaluated by known methods described in the literature (Harding, et al., Nature, 1989, 341:758-760; Holt et al. J. Am. Chem. Soc., 115:9923-9938). The cis-trans isomerization of an alanine-proline bond in a model substrate, N-succinyl-Ala-Ala-Pro-Phe-p-nitroanilide, is monitored spectrophotometrically in a chymotrypsin-coupled assay, which releases paranitroanilide from the trans form of the substrate. The inhibition of this reaction caused by the addition of different concentrations of inhibitor is determined, and the data is analyzed as a change in first-order rate constant as a function of inhibitor concentration to yield the apparent Ki values. […]
# The absorbance at 390 nm versus time is monitored for 90 seconds using a spectrophotometer and the rate constants are determined from the absorbance versus time data files. […]
Ki [2],Compound,neurite outgrowth in sensory neurons (photomicrograph) ([1]; 10 pM),neurite outgrowth in sensory neurons (photomicrograph) ([1]; 100 pM),neurite outgrowth in sensory neurons (photomicrograph) ([1]; 10 nM),neurite outgrowth in sensory neurons (photomicrograph) ([1]; 1 pM)
638 nM,"CCC(C)(C)C(=O)C(=O)N1CSCC1C(=O)OCCCc1cccnc1 [Compound 2, 3-(3-pyridyl)-1-propyl(2S)-1-(3,3-dimethyl-1,2-dioxopentyl) -2-(4-thiazolidine) carboxylate]",promoting neurite outgrowth,promoting neurite outgrowth,promoting neurite outgrowth,–
215 nM,"CCC(C)(C)C(=O)C(=O)N1CSCC1C(=O)OCCCc1ccccc1 [Compound 1, 3-phenyl-1-propyl(2S)-1-(3,3-dimethyl-1,2-dioxopentyl)-2-(4-thiazolidine)carboxylate]",promoting neurite outgrowth,promoting neurite outgrowth,–,promoting neurite outgrowth
